Source: patent US10357556B2, “Methods and compositions for T cell generation and uses thereof” (priority 2016, dated 2019)

How the values were obtained:
[1] = tested on: CD4+Foxp3+ regulatory T cells (Tregs); experiment: In vitro DC-T cell co-culture: pulsed BMDCs co-cultured with CD4+ T cells; type: cell-based, mouse
Description: Co-culture of bone marrow-derived dendritic cells (BMDCs) and CD4^+ T cells were performed as previously described (30, 32, 36). Briefly, BMDCs were generated from bone marrow progenitor cells isolated from femurs of WT or Atg16L1^ΔCD11c mice in the presence of 20 ng/ml GM-CSF (Miltenyi) in complete RPMI media 1640 (10% fetal bovine serum, 50 U/ml penicillin, 50 μg/ml streptomycin, 2 mM L-glutamine, 1 mM sodium pyruvate, 1 mM HEPES, and non-essential amino acids, and β-mercaptoethanol). BMDCs were pulsed with PBS, WT-OMVs (10 μg/ml), ΔPSA-OMVs (10 μg/ml) or pure PSA (50 μg/ml) for 18-22 hrs; OMVs with a protein content of 10 μg contain 50 μg of PSA. […]
(§1) Cells were incubated in 5% mouse serum for 15 min and stained for 20 min at 4° C. with either LIVE/DEAD fixable green or far red dead stain kit (Life Technologies), with empirically titrated concentrations of the following antibodies: PerCP-Cy5.5-conjugated anti-mouse CD4 (clone: RM4-5), PerCP-Cy5.5-conjugated anti-human CD4 (clone: OKT4), and/or PE-Cy7-conjugated anti-mouse CD4 (clone: RM4-5). […] Cell acquisition was performed on a BD FACS Calibur (BD Biosciences) or Miltenyi MACSQuant (Miltenyi), and data was analyzed using FlowJo software suite (TreeStar). For ELISAs, cell supernatant from in vitro DC-T cell co-culture were collected and mouse IL-10 and IL-17A were measured using commercially available kits (eBiosciences).

[2] = tested on: CD4+CD25- responder effector T cells (Teff); experiment: In vitro T cell suppression assay; type: cell-based, mouse; conditions: Tregs from co-cultures with Atg16L1ΔCD11c BMDCs
Description: CD4^+CD25^+ Treg cells were purified from in vitro BMDC-T cell co-cultures using magnetic microbeads (Miltenyi). CD4^+CD25^− responder effector T cells (Teff) were isolated from mouse spleens, labeled with 2.5 μM CFSE for 10 min at 37° C. in the dark, washed, and incubated with Treg cells at various Treg:Teff ratios in the presence of 1 μg/ml anti-mouse CD3 (eBiosciences). Irradiated CD4-depleted mouse splenocytes served as antigen-presenting cells. Cultures were incubated for 48 and 72 hrs, cells were stained with specific antibodies and a viability dye, and analyzed by flow cytometry. Dilution of CFSE signal is a measure of proliferation, and inhibition of proliferation a measure of Treg activity.

[3] = tested on: LC3-associated phagocytosis (LAP); experiment: LC3-GFP accumulation in BMDCs (LAP activation); type: cell-based, mouse; conditions: Rubicon+/- BMDCs
Description: Quantification of LC3-GFP accumulation upon 2 h treatment of BMDCs with PBS, B. fragilis WT-OMV, ΔPSA-OMV or purified PSA in Rubicon^+/− or Rubicon^−/− DCs. Error bars represent S.E.M. **** p<0.0001. Data are representative of 3 independent experiments.

[4] = tested on: CD4+Foxp3+ Tregs; experiment: Human MoDC - syngeneic CD4+ T cell co-culture; type: cell-based; conditions: cells from most subjects, regardless of genotype
Description: To generate monocyte-derived dendritic cell (MoDCs), human PBMCs were isolated from fresh whole blood the same day of harvest using Ficoll-Hypaque (GE Healthcare) gradient (density=1.070 g/ml), followed by monocyte enrichment using the Human Monocyte Isolation Kit II (Miltenyi). For differentiation into MoDCs, monocytes were incubated with recombinant human IL-4 and GM-CSF (Peprotech) every two days in complete RPMI 1640 (5% human AB serum, 50 U/ml penicillin, 50 μg/ml streptomycin, 2 mM L-glutamine, 1 mM sodium pyruvate, 1 mM HEPES, non-essential amino acids, […]). […]
as §1

**Q.** Which IL-10 production ([1]; ATG16L1-deficient (Atg16L1ΔCD11c) DCs) does the source give for Polysaccharide A [PSA] here?
**A.** Its IL-10 production is “does not require ATG16L1 for its activity”.

**Q.** What about the “IL-10 production among CD4+Foxp3- type 1 regulatory T cells” value ([1]; WT or Atg16L1ΔCD11c DCs) of the same substance?
**A.** Its value is “Neither WT-OMVs nor pure PSA have any effect”.

**Q.** What about the Treg suppressive activity [2] of the same substance?
**A.** The Treg suppressive activity was “does not require ATG16L1 to promote suppressive Treg activity”.

**Q.** What about the “Accumulation of membrane-bound LC3-GFP (LC3-II) / LAP activation” value [3] of the same substance?
**A.** The value was “neither APSA-OMVs nor purified PSA are able to activate LAP”.

**Q.** And the “Response (IL-10 among CD4+Foxp3+ Tregs)” value [4]?
**A.** The value was “respond to purified PSA”.
